These results are taken from patent US10570152B2, “Antibacterial therapeutics and prophylactics” (VYOME BIOSCIENCES PVT. LTD., priority 2015, dated 2020).

In one series the test system is A. baumannii ATCC 1906. The experiment in a line: MIC by micro broth dilution. The format is cell-based. Particulars: Acinetobacter baumannii, ATCC1906, read-out: Minimum inhibitory concentration (MIC). Summed up:
(§1)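 Alamar blue read-out defined the MIC after 24 h incubation at 37° C. Strains grown on BHI agar; inoculum set to 0.5 McFarland, then diluted 100 times in BHI broth and added to doubling drug dilutions.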

Another series concerns E. aerogenes M2-1. The experiment in a line: MIC by micro broth dilution. The format is cell-based. Particulars: Klebsiella aerogenes, M21, read-out: Minimum inhibitory concentration (MIC). The essentials: as §1
(In general: Dilution methods test growth across graded concentrations, often in twofold steps.)

In the next series the test system is E. aerogenes NCIM 5139. The experiment in a line: MIC by micro broth dilution. The format is cell-based. Particulars: Klebsiella aerogenes, NCIM5139, read-out: Minimum inhibitory concentration (MIC). Summed up: as §1
A further series relates to E. coli BAA 196. In words: MIC by micro broth dilution. The format is cell-based. Particulars: Escherichia coli, BAA196, read-out: Minimum inhibitory concentration (MIC). The essentials: as §1
The test system of another series is E. coli MTCC 1687. In words: MIC by micro broth dilution. The format is cell-based. Particulars: Escherichia coli, MTCC1687, read-out: Minimum inhibitory concentration (MIC). Summed up:
as §1

Another series deals with E. faecium NCIM 5421. The experiment in a line: MIC by micro broth dilution. Particulars: Enterococcus faecium, NCIM5421, read-out: Minimum inhibitory concentration (MIC). The format is cell-based. The essentials: as §1
Another series has as its system K. pneumonia ATCC 13883. In words: MIC by micro broth dilution. The format is cell-based. Particulars: Klebsiella pneumoniae, ATCC13883; K. pneumonia ATCC 13883; read-out: Minimum inhibitory concentration (MIC). The essentials: as §1
The next series has as its system P. aeruginosa ATCC 27853. The experiment in a line: MIC by micro broth dilution. Particulars: Pseudomonas aeruginosa, ATCC27853, read-out: Minimum inhibitory concentration (MIC). The format is cell-based. The essentials: as §1
The test system of another series is S. aureus ATCC 43300. In words: MIC by micro broth dilution. The format is cell-based. Particulars: Staphylococcus aureus, ATCC43300; S. aureus ATCC 43300; read-out: Minimum inhibitory concentration (MIC). Summed up:
as §1

A further series deals with S. aureus CCARM 3505. In words: MIC by micro broth dilution. Particulars: Staphylococcus aureus, CCARM3505, read-out: Minimum inhibitory concentration (MIC). The format is cell-based. Summed up:
as §1

For the next series, the system named is S. aureus MTCC 6908. The experiment in a line: MIC by micro broth dilution. The format is cell-based. Particulars: Staphylococcus aureus, MTCC6908, read-out: Minimum inhibitory concentration (MIC). Summed up:
as §1

Series [1] relates to S. epidermidis ATCC 35984. The experiment in a line: MIC by micro broth dilution. The format is cell-based. Particulars: Staphylococcus epidermidis, ATCC35984, read-out: Minimum inhibitory concentration (MIC). Summed up:
as §1

A further series has as its system S. epidermidis S12-1. In words: MIC by micro broth dilution. The format is cell-based. Particulars: Staphylococcus epidermidis, S121, read-out: Minimum inhibitory concentration (MIC). The essentials: as §1
The test system of the next series is Gram negative pathogens. In words: MIC interpretations, Gram negative pathogens. The format is cell-based. Particulars: most of the Gram negative pathogens. As for the experimental part: MIC of DART molecules were determined by micro broth dilution as per CLSI guidelines. Bacterial strains were cultured in Brain Heart Infusion Agar (BHIA) at 37° C. for 24 h. For MIC determination, BHI broth (100 μl) was added to each of the wells of a 96 well plate. 100 μl of broth containing drug was added to the first well (1A to 1H) and thereafter serial (double) dilutions were carried out for up to 10 wells (column 1 to column 10 of the 96 well plate). Bacterial inoculum was prepared by adjusting the bacterial culture turbidity to 0.5 McFarland standard (approximately 1.5×10^8 cells/ml) and further diluted (100 times with sterile BHI broth). Diluted bacterial suspension (100 μl) was added to each well except sterility control wells (column 12 of 96 well plate). The plates were incubated at 37° C. for 24 h. The MIC of the test compound was measured after addition of Alamar blue dye.

A further series deals with S. epidermidis S5-2. In words: Sequential ZIB (zone of inhibition) assay for PMMA beads. Particulars: SmartSet HV impregnated beads. The format is cell-based, Staphylococcus epidermidis. As for the experimental part: S. epidermidis S5-2 cells were grown in Brain Heart Infusion Agar (BHIA) at 37° C. for 24 h. 100 μl of 0.5 McFarland equal bacterial suspension was spread on BHA plates. Drug loaded beads were placed above these plates. Plates were incubated at 37° C. for 24 h. Next day, zone of inhibition (ZOI) the beads were measured following which the beads were placed on fresh BHA plates with bacterial suspension spread and this experiment was continued up to seven days. The drug release pattern was determined by compiling and analyzing the ZOI data of beads on each ZOI cycle up to seven days.

A short description of series [2]: Drug release assay of compound impregnated Smart set HV. The format is physicochemical. Particulars: Smart set HV loaded; PBS buffer (pH 6.8):acetonitrile (9:1), 32° C., 7 days. As for the experimental part: The drug release study with compound 2 and compound 10 were conducted in sample vial containing 1.5 ml of dissolution media i.e., PBS buffer (pH 6.8):acetonitrile (9:1). The sample was kept in incubator rotator at 32° C. at 40 rpm. The release medium was withdrawn at specified interval of time (2 hr, 4 hr, 6 hr, day 1, day 2, day 3, day 4, day 5, day 6, day 7 and replaced by fresh 1.5 ml dissolution medium each time. All the samples were kept at −20° C. till the analysis is done. The measurement of drug release was done by HPLC.

The subject of series [3] is S. aureus and S. epidermidis. The experiment in a line: Emergence of resistance assay (serial passaging). Particulars: upto 28th generation. The format is cell-based, S. aureus MTCC 6908 & S. epidermidis S5-2. As for the experimental part: The in vitro emergence of resistance assay was performed for the compounds as per methods reported in literatures. The resistance assay for the test compounds was done in the same manner as documented in the MIC assay using micro broth dilution method as per CLSI guidelines. For the second cycle, bacterial culture was collected from the well showing growth, containing the next lowest concentration to the MIC of test compound, and used as inoculum for the next cycle containing the same or higher range of concentrations depending on the MIC in each cycle. The same procedure was repeated in subsequent cycles for 20-30 days. […] The serial passaging was repeated for 20-30 consecutive cycles. The assay was done in duplicates in each cycle.
An increase in MIC≥8 fold compared to the MIC of the test compound in cycle 1 was considered as a significant development of resistance.

Converted amounts (≈) assume the structure as drawn.

For `Cc1ncc([N+](=O)[O-])n1CCN1CCN(c2cc3c(cc2F)c(=O)c(C(=O)O)c2n3C(C)S2)CC1` (centres unmarked) [Compound 2, 6-Fluoro-1-methyl-7-(4-(2-(2-methyl-5-nitro-1H-imidazol-1-yl)ethyl)piperazin-1-yl)-4-oxo-1H,4H-[1,3]thiazeto[3,2-a]quinoline-3-carboxylic acid], the MIC with A. baumannii ATCC 1906 amounted to 8 µg/mL (≈ 15.9 µM); in the series with E. aerogenes M2-1, 8 µg/mL (≈ 15.9 µM); in the series on E. aerogenes NCIM 5139, 4 µg/mL (≈ 7.96 µM); in the series on E. coli BAA 196 it was 8 µg/mL (≈ 15.9 µM); in the series with E. coli MTCC 1687 it was 1 µg/mL (≈ 1.99 µM); in the series with E. faecium NCIM 5421 it was 0.25 µg/mL (≈ 0.497 µM). Further, the MIC with K. pneumonia ATCC 13883 came out at 4 µg/mL (≈ 7.96 µM); in the series with P. aeruginosa ATCC 27853 it was 8 µg/mL (≈ 15.9 µM); in the series on S. aureus ATCC 43300 it was 0.13 µg/mL (≈ 0.259 µM); with S. aureus CCARM 3505, 16 µg/mL (≈ 31.8 µM); with S. aureus MTCC 6908, 0.53 µg/mL (≈ 1.05 µM); in series [1], 0.03 µg/mL (≈ 0.0597 µM). Besides, in the series on S. epidermidis S12-1, the MIC was 8 µg/mL (≈ 15.9 µM). Besides, in the series with Gram negative pathogens, the “activity (MIC) range” value lay within 4 to 8 µg/mL. Moreover, the “Sequential ZOI” value with S. epidermidis S5-2 (Day-1) is 2.2 cm; in the series on S. epidermidis S5-2 (Day-2), 2.1 cm; in the series with S. epidermidis S5-2 (Day-3), 1.6 cm; in the series on S. epidermidis S5-2 (Day-4) it was 0.8 cm; with S. epidermidis S5-2 (Day-5) it was 1.6 cm; in the series on S. epidermidis S5-2 (Day-6) it was 1.8 cm. Also, in the series with S. epidermidis S5-2 (Day-7), the “Sequential ZOI” value worked out at 1.4 cm. For the same molecule, the “drug release from bone cement in words” value in [2] is on record as “sustained release of active over a period of 7 days”. The MIC enhancement in [3] is recorded as 2-4 ×MIC.
